# Measured values: patent US20250041434A1, “CEA ASSAY FOR PATIENT SELECTION IN CANCER THERAPY” (SANOFI, priority 2021, published 2025)
# Legend:
# cancer cells = assay: cytotoxic activity of ADC metabolites; format: cell-based; settings: through binding to tubulin and inhibition of microtubule polymerization
# [1] = test system: human primary colon and stomach tumors; settings: mice bearing human primary colon and stomach tumors; see WO 2014/079886; cited from earlier work
# CEACAM1 = molecular target: T1, CEACAM1 (Homo sapiens, UniProt P13688); assay: recognition of other CEACAMs; format: binding
# T1 sequence (P13688 35-526): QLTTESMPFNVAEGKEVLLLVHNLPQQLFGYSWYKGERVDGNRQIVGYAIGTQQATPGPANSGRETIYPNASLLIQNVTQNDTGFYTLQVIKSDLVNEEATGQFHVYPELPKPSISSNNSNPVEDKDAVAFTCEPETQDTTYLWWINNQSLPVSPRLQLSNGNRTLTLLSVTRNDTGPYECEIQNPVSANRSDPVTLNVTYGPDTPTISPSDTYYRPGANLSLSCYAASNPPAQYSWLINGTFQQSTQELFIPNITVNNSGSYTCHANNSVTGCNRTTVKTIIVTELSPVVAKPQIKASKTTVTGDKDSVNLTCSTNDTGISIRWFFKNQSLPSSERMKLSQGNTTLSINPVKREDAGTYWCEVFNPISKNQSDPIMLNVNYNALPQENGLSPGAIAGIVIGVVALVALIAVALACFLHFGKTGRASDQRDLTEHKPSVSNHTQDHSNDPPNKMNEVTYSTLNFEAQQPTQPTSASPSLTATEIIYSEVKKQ
# [2] = preliminary experiments on effector activity
# [3] = test system: patient-derived CRC xenograft expressing CEACAM5; assay: circulating CEA in mice engrafted orthotopically with patient-derived CRC xenograft; format: in vivo; settings: single active dose; rise in circulating CEA occurring with tumor growth
# Text: However, specificities linked to the CEACAM5 target would potentially allow a more accurate follow-up of treatment impact on tumor growth by the monitoring CEA levels in the blood. Indeed, measurement of circulating CEA levels is of some use for CRC treatment monitoring. […] Similarly, modulation of circulating CEA may be a useful PDy marker of response to tusamitamab ravtansine. […] The usefulness of monitoring circulating CEA will be explored in this clinical study.
# tumor cells = settings: see WO 2014/079886; cited from earlier work
# CEACAM6 = molecular target: T2, CEACAM6 (Homo sapiens, UniProt P40199); assay: recognition of other CEACAMs; format: binding
# T2 sequence (P40199 35-320): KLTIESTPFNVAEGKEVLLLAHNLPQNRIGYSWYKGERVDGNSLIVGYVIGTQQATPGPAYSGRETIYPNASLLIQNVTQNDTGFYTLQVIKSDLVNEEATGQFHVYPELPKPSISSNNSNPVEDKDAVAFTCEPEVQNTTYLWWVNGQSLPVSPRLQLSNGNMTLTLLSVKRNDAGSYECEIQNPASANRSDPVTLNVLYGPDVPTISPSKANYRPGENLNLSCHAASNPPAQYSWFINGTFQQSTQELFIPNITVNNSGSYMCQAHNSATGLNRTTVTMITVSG
# [4] = test system: relevant experimental model; assay: single administration in relevant experimental model; format: in vivo
# CEACAM7 = molecular target: T3, CEACAM7 (Homo sapiens, UniProt Q14002); assay: recognition of other CEACAMs; format: binding
# T3 sequence (Q14002 36-242): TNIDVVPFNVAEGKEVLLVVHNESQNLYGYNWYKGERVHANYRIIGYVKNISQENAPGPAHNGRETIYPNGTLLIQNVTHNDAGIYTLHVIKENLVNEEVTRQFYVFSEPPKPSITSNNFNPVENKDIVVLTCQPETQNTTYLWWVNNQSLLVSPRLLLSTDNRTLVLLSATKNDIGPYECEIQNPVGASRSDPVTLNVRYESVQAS
# [5] = Phase 1/2 study adverse drug reactions; format: in vivo, human; settings: heavily pre-treated high CEACAM5 expressers for NSCLC
# Protocol: The ADC was analyzed in a Phase 1/2 study in heavily pre-treated high CEACAM5 expressers for NSCLC.
# CEACAM8 = molecular target: T4, CEACAM8 (Homo sapiens, UniProt P31997); assay: recognition of other CEACAMs; format: binding
# T4 sequence (P31997 35-320): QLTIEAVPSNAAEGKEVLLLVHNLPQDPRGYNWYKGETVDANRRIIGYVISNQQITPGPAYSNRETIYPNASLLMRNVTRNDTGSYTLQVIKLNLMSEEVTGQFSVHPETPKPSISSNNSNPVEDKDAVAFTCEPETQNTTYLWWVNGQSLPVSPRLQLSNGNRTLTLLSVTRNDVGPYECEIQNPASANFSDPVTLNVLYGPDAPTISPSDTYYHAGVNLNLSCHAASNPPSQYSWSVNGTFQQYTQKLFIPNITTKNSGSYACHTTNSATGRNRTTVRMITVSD
# [6] = test system: NSQ NSCLC with high CEACAM5 expression; assay: TED13751 clinical study, tumor response (RECIST 1.1) in NSQ NSCLC high CEACAM5 expressers; format: in vivo, human; settings: for anti-tumor activity, in words: participants heavily pre-treated for NSQ NSCLC, study TED13751
# Protocol: In this cohort of NSQ NSCLC participants with high CEACAM5 expression on tumor (≥2+ in intensity in ≥50%) expansion cohort NSQ NSCLC, 10 out of 13 responding participants had high baseline circulating CEA (≥100 ng/mL).
# Expression of CEACAM5 on tumor was assessed using CEACAM5 IHC test and circulating CEA and CEACAM5 assays for patients enrolled in clinical trial TED13751 (NCT02187848).
# Circulating CEA was determined locally using the assay which was of routine use in the institution. In vitro diagnostic CEA assays measure CEA not claiming specificity for CEACAM5.
# The study will be divided in […] parts: The Escalation Phase and the Expansion Phase.
# The expansion phase will be conducted with every 2 weekly dosing schedule. During the Expansion Phase, the population to be treated will be restricted to patients with advanced diseases in colorectal cancer (CRC), NSQ NSCLC, small cell lung cancer (SCLC), and gastric adenocarcinoma (including signet-ring cell carcinoma subtype as well as esophago-gastric junction (EGJ) adenocarcinomas of the Siewert Types II and III). CEACAM5 expression of ≥2+ in intensity involving ≥50% of the tumor cell population will be documented during pre-screening on the most recent archival tissue sample and using local IHC evaluation for patients potentially eligible for study treatment in the gastric adenocarcinoma cohort. There are 2 independent NSQ NSCLC expansion phase cohorts: The first one (Lung cohort) includes patients with high CEACAM5 expression (≥2+ in intensity involving at least 50% of the tumor cell population). The second cohort (Lung bis cohort) will include patients that pre-screened positive at moderate intensity (≥2+ between ≥1% to <50% of the tumor cell population). The SCLC cohort includes patients with CEACAM5 expression of ≥2+ in intensity involving ≥1% of the tumor cell population. […] Full screening will only be done for archival cases meeting the above definition. No CEACAM5 pre-screening is required for CRC patients potentially eligible for the CRC expansion cohort. The level of CEACAM5 expression will be documented essentially retrospectively and centrally on both archival and fresh (baseline sample) tumor tissues. Confirmation of CEACAM5 tumor expression will be done retrospectively in a central laboratory on fresh tumor tissue collected at baseline (mandatory biopsy in the Expansion Phase only, on all patients with CRC and gastric cancer, and on NSQ NSCLC as well as SCLC patients with a lesion amenable to biopsy). If sufficient archived tumor material is available, a central evaluation will also be done retrospectively to gain knowledge on the variability in evaluation of the expression. The results of the retrospective analyses will have no impact on patients' treatment. It will be used for the better interpretation of the overall response, and as the baseline for comparison with CEACAM5 expression upon progression (exploration for loss of CEACAM5 as mechanism of acquired resistance).
# In the Expansion cohorts, the assessment of response to tusamitamab ravtansine is a primary objective. All patients treated in the Expansion Phase must have at least one measurable lesion for inclusion. Tumor assessment will be made at least every 4 cycles. Decision to pursue treatment will be based on the response evaluation made by the Investigator, however, measures of lesions will be collected in the electronic case report forms for a determination of response by Sponsor. A partial or complete response must be confirmed on a second examination done at least 4 weeks apart, in order to be documented as a confirmed response to therapy.
# The RECIST v1.1 criteria will be followed for assessment of tumor response.
# [7] = molecular target: T5, A3B3 domain of human CEACAM5 (Homo sapiens, UniProt P06731); assay: domain specificity of binding
# T5 sequence (P06731 499-685 limits assumed): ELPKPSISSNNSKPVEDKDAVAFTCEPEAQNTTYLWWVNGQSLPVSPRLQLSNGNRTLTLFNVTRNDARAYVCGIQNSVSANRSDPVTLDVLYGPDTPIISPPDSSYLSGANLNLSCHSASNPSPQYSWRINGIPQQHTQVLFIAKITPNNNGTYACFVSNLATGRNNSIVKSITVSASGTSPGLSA
# [8] = TED13751 Main dose escalation, maximum tolerated dose; format: in vivo, human; settings: q2w, IV infusion
# Text: The dose escalation decision will be based on the dose limiting toxicities (DLTs) observed during Cycle 1+Cycle 2 in q2w cycle and during Cycle 1 in q3w cycle, whether related or not to the investigational medicinal product (IMP) in the absence of clear evidence to the contrary after validation by the Study Committee, and if not related to the progression of disease. Before escalating the tusamitamab ravtansine dose to the next level, the safety data, and especially DLTs, ocular and cardiac adverse events (AEs) will be reviewed by the Study Committee. Cumulative toxicities observed on subsequent administrations will also be considered for the dose escalation process and the dose selection decision. […]
# For the accelerated dose escalation phase, as well as for the Bayesian EWOC, a minimum of […] duration (˜4 weeks) will be mandatory between the last patient who has received Day 1 of Cycle 1 at DL n, and the first patient who will receive Day 1 of Cycle 1 at DL n+1. The dose determined to be the maximum tolerated dose (MTD) will be tested further in the Expansion cohorts.
# The first loading dose tested will be 120 mg/m^2; if this first dose is safe, then dose escalation will proceed to test next 135 mg/m^2, and 150 mg/m^2. […] The determined MTD or safe MAD will be used for CRC-L cohort.
# cells expressing CEACAM5 = settings: see WO 2014/079886; cited from earlier work
# [9] = Phase 1/2 study, heavily pre-treated high CEACAM5 expressers for NSCLC
compound,measurement,setting,value
COc1cc2cc(c1Cl)N(C)C(=O)CC(OC(=O)C(C)N(C)C(=O)CCC(C)(C)SC)C1(C)OC1C(C)C1CC(O)(NC(=O)O1)C(OC)C=CC=C(C)C2 (stereo not shown) [Me-DM4],cytotoxic activity,cancer cells,potent cytotoxic activity
Tusamitamab ravtansine: immunoconjugate ADC combining humanized anti-CEACAM5 antibody tusamitamab and maytansinoid DM4 via SPDB linker; CAS Registry No. 2254086-60-5,tumor growth inhibition in vivo,[1],markedly inhibit tumor growth
same,recognition of CEACAM1,CEACAM1,does not recognize
same,effector activity,[2],devoid of effector activity
same,circulating CEA,[3],prevented a rise in circulating CEA
same,cytotoxic activity on tumor cells in vitro,tumor cells,induce cytotoxic activity
same,recognition of CEACAM6,CEACAM6,does not recognize
same,tumor regressions,[4],induces regressions
same,recognition of CEACAM7,CEACAM7,does not recognize
same,hematological/nerve toxicity,[5],minimal
same,most common Adverse Drug Reactions (ADRs),[5]; reversible without treatment discontinuation,ocular toxicity
same,recognition of CEACAM8,CEACAM8,does not recognize
same,participants who had PR,"[6]; 100 mg/m^2 Q2W, 64 participants, RECIST 1.1",13
same,overall response rate,"[6]; 100 mg/m^2 Q2W, 64 participants, RECIST 1.1, 95% CI: 12.27% to 31.71%",20.3%
same,"Duration of Response (DoR), in words",[6]; [9],competitive
same,"Overall Response Rate (ORR), in words",[6]; [9],competitive
same,Responses (%),"[6]; baseline circulating CEA <5 μg/L (9 patients), 100 mg/m^2 Q2W",22.2%
same,Responses (%),"[6]; baseline circulating CEA <100 μg/L (37 patients), 100 mg/m^2 Q2W",8.1%
same,Responses (%),"[6]; baseline circulating CEA >3 μg/L (58 patients), 100 mg/m^2 Q2W",22.4%
same,Responses (%),"[6]; baseline circulating CEA ≥5 μg/L (53 patients), 100 mg/m^2 Q2W",20.8%
same,Responses (%),"[6]; baseline circulating CEA ≥100 μg/L (25 patients), 100 mg/m^2 Q2W",40.0%
same,share of the 13 responders with baseline circulating CEA level ≥100 μg/L,"[6]; high expressers cohort, 100 mg/m^2 Q2W",77%
same,"anti-tumor activity, in words",[6],encouraging anti-tumor activity
same,"anti-tumor activity, in words",[6]; listed as tusamitamab ravtansine,Encouraging preliminary anti-tumor activity
same,binding to A3B3 domain of human CEACAM5,[7],specifically binds
same,maximum tolerated dose (MTD),[8],100 mg/m^2
same,internalization into cells expressing CEACAM5 after binding,cells expressing CEACAM5,capable of being internalized
"COc1cc2cc(c1Cl)N(C)C(=O)CC(OC(=O)C(C)N(C)C(=O)CCC(C)(C)S)C1(C)OC1C(C)C1CC(O)(NC(=O)O1)C(OC)/C=C/C=C(\C)C2 (stereo not shown) [DM4, N2′-deacetyl-N-2′(4-methyl-4-mercapto-1-oxopentyl)-maytansine]",cytotoxic activity,cancer cells,potent cytotoxic activity
